Test results published in ChEMBL document CHEMBL1144588, “Synthesis and SAR of 3,5-diamino-piperidine derivatives: novel antibacterial translation inhibitors as aminoglycoside mimetics” (Bioorg Med Chem Lett, 2007).
Converted amounts (≈) assume the structure as drawn.

Key:
Escherichia coli = test: Inhibition of protein synthesis in Escherichia coli by coupled transcription-translation assay; type: functional, organism-based
Staphylococcus aureus = test: Antibacterial activity against Staphylococcus aureus ATCC 25923; type: functional
Pseudomonas aeruginosa = test: Antimicrobial activity against Pseudomonas aeruginosa; type: functional

Structure (SMILES): NCCN(CCN)c1nc(Nc2ccc(NC(=O)c3ccc4ccccc4c3O)cc2)nc(N(CCN)CCN)n1
- IC50 (Escherichia coli): 7 µM

Structure (SMILES): NC1CN(c2nc(Nc3ccc(NC(=O)c4ccc(Cl)cc4)c(O)c3)nc(N3C[C@H](N)C[C@H](N)C3)n2)C1
- IC50 (Escherichia coli): 14 µM

Structure (SMILES): Cc1ccc(S(=O)(=O)N(Cc2ccccc2)c2ccc(Nc3nc(N4C[C@H](N)C[C@H](N)C4)nc(N4C[C@@H](N)C[C@H]4CO)n3)cc2O)cc1
- IC50 (Escherichia coli): 15 µM
- MIC (Staphylococcus aureus): 8 µg/mL (≈ 11.9 µM)

Structure (SMILES): Cc1ccc(S(=O)(=O)N(Cc2ccccc2)c2ccc(Nc3nc(N4C[C@H](N)C[C@H](N)C4)nc(N4C[C@H](CN)C[C@H](CN)C4)n3)cc2O)cc1
- IC50 (Escherichia coli): 1 µM
- MIC (Staphylococcus aureus): 8 µg/mL (≈ 11.4 µM)

Structure (SMILES): Cc1ccc(S(=O)(=O)N(Cc2ccccc2)c2ccc(Nc3nc(N4C[C@H](N)C[C@H](N)C4)nc(N4CC[C@H](O)[C@H](CN)C4)n3)cc2O)cc1
- IC50 (Escherichia coli): 27 µM
- MIC (Staphylococcus aureus): 16 µg/mL (≈ 23.2 µM)

Structure (SMILES): Cc1ccc(S(=O)(=O)N(Cc2ccccc2)c2ccc(Nc3nc(N4CC(N)C4)nc(N4C[C@H](N)C[C@H](N)C4)n3)cc2O)cc1
- IC50 (Escherichia coli): 11 µM
- MIC (Staphylococcus aureus): 160 µg/mL (≈ 254 µM)

Structure (SMILES): NCCN(CCN)c1nc(Nc2ccc(NC(=O)c3ccc4ccccc4c3O)cc2)nc(N2C[C@H](N)C[C@H](N)C2)n1
- IC50 (Escherichia coli): 10 µM
- MIC (Staphylococcus aureus): 8 µg/mL (≈ 14 µM)

Structure (SMILES): Cc1ccc(S(=O)(=O)N(Cc2ccccc2)c2ccc(Nc3nc(N(CCN)CCN)nc(N4C[C@H](N)C[C@H](N)C4)n3)cc2O)cc1
- IC50 (Escherichia coli): 1 µM
- MIC (Staphylococcus aureus): 8 µg/mL (≈ 12.1 µM)

Structure (SMILES): N[C@@H]1C[C@H](N)CN(c2nc(Nc3ccc(NC(=O)c4ccc(Cl)cc4)c(O)c3)nc(N3C[C@@H](N)[C@@H](N)C3)n2)C1
- IC50 (Escherichia coli): 58 µM
- MIC (Staphylococcus aureus): 16 µg/mL (≈ 28.9 µM)

Structure (SMILES): NC[C@H]1[C@@H](O)CCN1c1nc(Nc2ccc(NC(=O)c3ccc(Cl)cc3)c(O)c2)nc(N2C[C@H](N)C[C@H](N)C2)n1
- IC50 (Escherichia coli): 19 µM
- MIC (Staphylococcus aureus): 32 µg/mL (≈ 56.2 µM)

Structure (SMILES): Cc1ccc(S(=O)(=O)N(Cc2ccccc2)c2ccc(Nc3nc(N4C[C@H](N)C[C@H](N)C4)nc(N4C[C@@H](N)C[C@@H](O)C4)n3)cc2O)cc1
- IC50 (Escherichia coli): 17 µM
- MIC (Staphylococcus aureus): 16 µg/mL (≈ 23.7 µM)

Structure (SMILES): NC[C@@H]1C[C@H](CN)CN(c2nc(Nc3ccc(NC(=O)c4ccc5ccccc5c4O)cc3)nc(N3C[C@H](N)C[C@H](N)C3)n2)C1
- IC50 (Escherichia coli): 8 µM
- MIC (Staphylococcus aureus): 4 µg/mL (≈ 6.54 µM)

Structure (SMILES): NC[C@@H]1C[C@H](N)CN1c1nc(Nc2ccc(NC(=O)c3ccc4ccccc4c3O)cc2)nc(N2C[C@H](N)C[C@H](N)C2)n1
- IC50 (Escherichia coli): 10 µM
- MIC (Staphylococcus aureus): 2 µg/mL (≈ 3.43 µM)

Structure (SMILES): N[C@@H]1C[C@H](N)CN(c2nc(Nc3ccc(Cl)c(Cl)c3)nc(N3C[C@H](N)C[C@H](N)C3)n2)C1
- IC50 (Escherichia coli): 10 µM

Structure (SMILES): N[C@@H]1C[C@H](N)CN(c2nc(Nc3ccc(NC(=O)c4ccc(Cl)cc4)c(O)c3)nc(N3C[C@@H](N)C[C@H]3CO)n2)C1
- IC50 (Escherichia coli): 13 µM
- MIC (Staphylococcus aureus): 32 µg/mL (≈ 56.2 µM)

Structure (SMILES): N[C@@H]1C[C@H](N)CN(c2nc(Nc3ccc(NC(=O)c4ccc(Cl)cc4)c(O)c3)nc(N3C[C@H](N)C[C@H](N)C3)n2)C1
- MIC90 (Pseudomonas aeruginosa): 8 µg/mL (≈ 14.1 µM)
- MIC (Staphylococcus aureus): 16 µg/mL (≈ 28.2 µM)

Structure (SMILES): N[C@@H]1C[C@H](N)CN(c2nc(Nc3ccc(NC(=O)c4ccc5ccccc5c4O)cc3)nc(N3C[C@@H](N)C[C@H]3CO)n2)C1
- IC50 (Escherichia coli): 19 µM
- MIC (Staphylococcus aureus): 8 µg/mL (≈ 13.7 µM)

Structure (SMILES): N[C@@H]1C[C@H](N)CN(c2nc(Nc3ccc(NC(=O)c4ccc(Cl)cc4)c(O)c3)nc(N3C[C@@H](O)[C@@H](O)C3)n2)C1
- IC50 (Escherichia coli): 77 µM
- MIC (Staphylococcus aureus): 64 µg/mL (≈ 115 µM)

Structure (SMILES): Cc1ccc(S(=O)(=O)N(Cc2ccccc2)c2ccc(Nc3nc(N4C[C@H](N)C[C@H](N)C4)nc(N4C[C@H](N)C[C@H](N)C4)n3)cc2O)cc1
- IC50 (Escherichia coli): 3 µM
- MIC (Staphylococcus aureus): 8 µg/mL (≈ 11.9 µM)

Structure (SMILES): NC[C@@H]1C[C@H](CN)CN(c2nc(Nc3ccc(NC(=O)c4ccc(Cl)cc4)c(O)c3)nc(N3C[C@H](N)C[C@H](N)C3)n2)C1
- IC50 (Escherichia coli): 11 µM
- MIC (Staphylococcus aureus): 16 µg/mL (≈ 26.8 µM)

Structure (SMILES): O=C(N[C@H](CO)[C@H](O)c1ccc([N+](=O)[O-])cc1)C(Cl)Cl [CHLORAMPHENICOL]
- MIC (Staphylococcus aureus): 8 µg/mL (≈ 24.8 µM)

Structure (SMILES): N[C@@H]1C[C@H](N)CN(c2ncnc(Nc3ccc(NC(=O)c4ccc5ccccc5c4O)cc3)n2)C1
- IC50 (Escherichia coli): 16 µM

Structure (SMILES): NC[C@@H]1CN(c2nc(Nc3ccc(NC(=O)c4ccc(Cl)cc4)c(O)c3)nc(N3C[C@H](N)C[C@H](N)C3)n2)CC[C@@H]1O
- IC50 (Escherichia coli): 31 µM
- MIC (Staphylococcus aureus): 32 µg/mL (≈ 54.9 µM)

Structure (SMILES): Cc1ccc(S(=O)(=O)N(Cc2ccccc2)c2ccc(Nc3nc(N4C[C@H](N)C[C@H](N)C4)nc(N4CC[C@H](O)[C@@H]4CN)n3)cc2O)cc1
- IC50 (Escherichia coli): 21 µM
- MIC (Staphylococcus aureus): 8 µg/mL (≈ 11.9 µM)

Structure (SMILES): N[C@@H]1C[C@H](O)CN(c2nc(Nc3ccc(NC(=O)c4ccc5ccccc5c4O)cc3)nc(N3C[C@@H](N)C[C@@H](O)C3)n2)C1
- IC50 (Escherichia coli): 100 µM

Structure (SMILES): NC1CCCN(c2nc(Nc3ccc(Cl)c(Cl)c3)nc(N3CCCC(N)C3)n2)C1 (centres undefined)
- IC50 (Escherichia coli): > 1000 µM

Structure (SMILES): N[C@@H]1C[C@H](N)CN(c2nc(Nc3ccc(NC(=O)c4ccc(Cl)cc4)c(O)c3)nc(N3CCCC(O)C3)n2)C1 (some centres undefined)
- IC50 (Escherichia coli): 40 µM
- MIC (Staphylococcus aureus): 32 µg/mL (≈ 57.8 µM)

Structure (SMILES): CN[C@@H]1C[C@H](NC)CN(c2nc(Nc3ccc(Cl)c(Cl)c3)nc(N3C[C@H](NC)C[C@H](NC)C3)n2)C1
- IC50 (Escherichia coli): 5 µM

Structure (SMILES): N[C@@H]1C[C@H](N)CN(c2nc(Nc3ccc(NC(=O)c4ccc5ccccc5c4O)cc3)nc(N3C[C@H](N)C[C@H](N)C3)n2)C1
- IC50 (Escherichia coli): 7 µM

Structure (SMILES): CN[C@@H]1C[C@H](NC)CN(c2nc(Nc3ccc(NC(=O)c4ccc5ccccc5c4O)cc3)nc(N3C[C@H](N)C[C@H](N)C3)n2)C1
- IC50 (Escherichia coli): 8 µM
- MIC (Staphylococcus aureus): 8 µg/mL (≈ 13.1 µM)

Structure (SMILES): Cc1ccc(S(=O)(=O)N(Cc2ccccc2)c2ccc(Nc3nc(N4C[C@H](N)C[C@H](N)C4)nc(N4C[C@@H](O)[C@@H](O)C4)n3)cc2O)cc1
- IC50 (Escherichia coli): 43 µM
- MIC (Staphylococcus aureus): 32 µg/mL (≈ 48.4 µM)

Structure (SMILES): Cc1ccc(S(=O)(=O)N(Cc2ccccc2)c2ccc(Nc3nc(N4C[C@H](N)C[C@H](N)C4)nc(N4C[C@@H](N)C[C@H]4CN)n3)cc2O)cc1
- IC50 (Escherichia coli): 13 µM
- MIC (Staphylococcus aureus): 2 µg/mL (≈ 2.97 µM)

Structure (SMILES): N[C@@H]1C[C@H](N)CN(c2nc(Nc3ccc(NC(=O)c4ccc(Cl)cc4)c(O)c3)nc(N3C[C@@H](N)C[C@@H](O)C3)n2)C1
- IC50 (Escherichia coli): 40 µM
- MIC (Staphylococcus aureus): 64 µg/mL (≈ 112 µM)

Structure (SMILES): NCCN(CCN)c1nc(Nc2ccc(NC(=O)c3ccc(Cl)cc3)c(O)c2)nc(N2C[C@H](N)C[C@H](N)C2)n1
- IC50 (Escherichia coli): 18 µM
- MIC (Staphylococcus aureus): 32 µg/mL (≈ 57.5 µM)

Structure (SMILES): NC[C@@H]1C[C@H](N)CN1c1nc(Nc2ccc(NC(=O)c3ccc4ccccc4c3O)cc2)nc(N2C[C@H](N)C[C@@H]2CN)n1
- IC50 (Escherichia coli): 8 µM

Structure (SMILES): Cc1ccc(S(=O)(=O)N(Cc2ccccc2)c2ccc(Nc3nc(N4CCC(C(N)=O)CC4)nc(N4C[C@H](N)C[C@H](N)C4)n3)cc2O)cc1
- IC50 (Escherichia coli): > 1000 µM

Structure (SMILES): N[C@@H]1C[C@H](N)CN(c2nc(Nc3ccc(NC(=O)c4ccc5ccccc5c4O)cc3)nc(N3C[C@@H](N)C[C@@H](O)C3)n2)C1
- IC50 (Escherichia coli): 17 µM
- MIC (Staphylococcus aureus): 8 µg/mL (≈ 13.7 µM)

Structure (SMILES): NC[C@@H]1C[C@H](N)CN1c1nc(Nc2ccc(NC(=O)c3ccc(Cl)cc3)c(O)c2)nc(N2C[C@H](N)C[C@H](N)C2)n1
- IC50 (Escherichia coli): 12 µM
- MIC (Staphylococcus aureus): 32 µg/mL (≈ 56.3 µM)

Structure (SMILES): N[C@@H]1C[C@H](N)CN(c2nc(Nc3ccc(NC(=O)c4ccc5ccccc5c4O)cc3)nc(N3C[C@@H](O)[C@@H](O)C3)n2)C1
- IC50 (Escherichia coli): 72 µM
- MIC (Staphylococcus aureus): 32 µg/mL (≈ 56 µM)

Structure (SMILES): Cc1ccc(S(=O)(=O)N(Cc2ccccc2)c2ccc(Nc3nc(N4CCCC(O)C4)nc(N4C[C@H](N)C[C@H](N)C4)n3)cc2O)cc1 (some centres undefined)
- IC50 (Escherichia coli): 44 µM
- MIC (Staphylococcus aureus): 8 µg/mL (≈ 12.1 µM)

Structure (SMILES): NC[C@@H]1CN(c2nc(Nc3ccc(NC(=O)c4ccc5ccccc5c4O)cc3)nc(N3C[C@H](N)C[C@H](N)C3)n2)CC[C@@H]1O
- IC50 (Escherichia coli): 21 µM
- MIC (Staphylococcus aureus): 16 µg/mL (≈ 26.7 µM)

Structure (SMILES): N[C@@H]1C[C@H](N)CN(c2nc(Nc3ccc(NC(=O)c4ccc5ccccc5c4O)cc3)nc(N3CCCC(O)C3)n2)C1 (some centres undefined)
- IC50 (Escherichia coli): 310 µM
- MIC (Staphylococcus aureus): 16 µg/mL (≈ 28.1 µM)

Structure (SMILES): NC(=O)C1CCN(c2nc(Nc3ccc(NC(=O)c4ccc(Cl)cc4)c(O)c3)nc(N3C[C@H](N)C[C@H](N)C3)n2)CC1
- IC50 (Escherichia coli): > 1000 µM

Structure (SMILES): Cc1ccc(S(=O)(=O)N(Cc2ccccc2)c2ccc(Nc3nc(N4C[C@H](N)C[C@H](N)C4)nc(N4C[C@@H](N)[C@@H](N)C4)n3)cc2O)cc1
- IC50 (Escherichia coli): 36 µM
- MIC (Staphylococcus aureus): 16 µg/mL (≈ 24.2 µM)

Structure (SMILES): NC[C@H]1[C@@H](O)CCN1c1nc(Nc2ccc(NC(=O)c3ccc4ccccc4c3O)cc2)nc(N2C[C@H](N)C[C@H](N)C2)n1
- IC50 (Escherichia coli): 10 µM
- MIC (Staphylococcus aureus): 16 µg/mL (≈ 27.4 µM)

Structure (SMILES): NC1CCN(c2nc(Nc3ccc(Cl)c(Cl)c3)nc(N3CCC(N)CC3)n2)CC1
- IC50 (Escherichia coli): 800 µM
